# Experiments:
# [1] = tested on: Hek-293T (human embryonic kidney cells); assay: MTT assay, in vitro cytotoxicity on normal Hek-293T; conditions: read-out: Inhibitory Activity/% at 10 μM, Hek-293T
# Description: Cells were purchased from the Cell Bank of the Chinese Academy of Sciences (Kunming, China).
# Cyclin D1 = assay: Western blot of Cyclin D1 expression in PC-3 cells; assay type: cell-based, human; conditions: 30 μM, 24 h, β-Tubulin internal reference
# Description: To analyze the effect of compound 8q on cell cycle, the cycle of PC-3 cells was detected after being treated with compound 8q for 24 h (Figure 5). […] In addition, Cyclin D1, a cell cycle-related protein, is a key regulator of cycle progression, mainly regulating G1/S phase transition. […] In summary, compound 8q can arrest cells in the G0/G1 phase. […]
# 2.6.Effects of 8q on expression of cell cycle related protein
# PC-3 cells were seeded in six-well plates at a density of 3 × 10^5 per well and incubated in 5 % CO2 incubator at 37 ℃ for 24 h. Then different concentrations of 8q and Harmine were added to continue cultivation for 24 h. The prepared 1× RIPA lysis buffer (Solarbio, Beijing, China), as well as protease (Solarbio, Beijing, China) and phosphatase inhibitors (Solarbio, Beijing, China), were added to the well in a ratio of 100:1:1. The cells were scraped off and then lysed on ice for 40 min. Mixed liquid was centrifuged, and the supernatant used the BCA protein assay kit (Beyotime, Shanghai, […]
# China) to measure protein concentration. 12.5% SDS-PAGE gel was used to separate the extracted total protein, which was transferred onto a PVDF membrane and sealed with 5% skim milk for 2.5 h. After that, primary antibodies included β-Tubulin and Cyclin D1 were added and incubated overnight at 4 ℃. […]
# PC-3 cells = assay: Annexin V-FITC/PI apoptosis, flow cytometry; assay type: cell-based, human; conditions: 10 μM
# Description: Apoptosis is an important target for antitumor therapy. To explore the antitumor mechanism of compound 8q, cell apoptosis was detected using flow cytometry. […] Moreover, reactive oxygen species (ROS) play a significant role in cell growth, differentiation and apoptosis. Excessive ROS can cause oxidative damage and lead to cell apoptosis. […]
# 2.3.The effect of compound 8q on cell apoptosis
# We used Annexin V-FITC/ PI double staining to evaluate cellular apoptosis via flow cytometry to figure out if apoptosis participates in the inhibition of cell growth.
# PC-3 cells were seeded in a six-well plate at a density of 3 × 105, and cultured at 37 ℃ and 5% CO2 for 24 h before adding 10 μM. 20 μM and 30 μM compound 8q and 30 μM Harmine to each well. After 48 h, the cells were collected and stained and incubated flowing the manufacturer ’s protocol of the Annexin V-FITC/PI Apoptosis Detection Kit (Solarbio, Beijing, China). After completion, the cells were immediately detected on the Flow Cytometry (Solarbio, Beijing, China). The experimental results were processed using Flow Jo and Prism 7.04 software. […]
smiles,measurement,setting,value
"COc1cc(-c2nc(-c3nnc(SCC(=O)Nc4ccc(CN5CCOCC5)cc4)o3)cc3c2[nH]c2ccccc23)cc(OC)c1OC [Compound 8q, N-(4-(morpholinomethyl)phenyl)-2-((5-(1-(3,4,5-trimethoxyphenyl)-9H-pyrido[3,4-b]indol-3-yl)-1,3,4-oxadiazol-2-yl)thio)acetamide]",inhibition at 10 µM,[1],54.8 ± 0.99%
same,Expression of Cyclin D1,Cyclin D1,significantly downregulated
same,Total apoptosis rate in PC-3 cells,PC-3 cells; 48 h,63.23%
same,Annexin V-FITC/PI flow cytometry quadrant Q1,PC-3 cells; Figure 4A,0.35
same,Annexin V-FITC/PI flow cytometry quadrant Q2,PC-3 cells; Figure 4A,22.7
same,Annexin V-FITC/PI flow cytometry quadrant Q3,PC-3 cells; Figure 4A,32.9
same,Annexin V-FITC/PI flow cytometry quadrant Q4,PC-3 cells; Figure 4A,44.1

# Source: article PMC11547513, “Design, Synthesis and Biological Activity Evaluation of β-Carboline Derivatives Containing Nitrogen Heterocycles” (Molecules, 2024)
